Results on 3 compounds are retold here after ChEMBL document CHEMBL5143757, “Combination of Cyclin-Dependent Kinase 4 Inhibitors and Androgen Receptor Inhibitors as Cancer Therapy” (2022).

Common to all, as to type: functional
Conditions in all cases: 96 h, read-out: GI

Assay [1] can be described thus: Growth inhibition of human LNCaP/AR cells assessed as decrease in tumor spheroid growth at 30 nM with media replenishment twice per week along with 3 to 4-day interval compound in presence of enzalutamide relative to control.
The nature of assay [2]: Growth inhibition of human LNCaP/AR cells assessed as decrease in tumor spheroid growth at 100 nM with media replenishment twice per week along with 3 to 4-day interval compound relative to control.
Assay [3] in a line: Growth inhibition of human LNCaP/AR cells assessed as decrease in tumor spheroid growth at 30 nM with media replenishment twice per week along with 3 to 4-day interval compound relative to control.
Assay [4] can be described thus: Growth inhibition of human LNCaP/AR cells assessed as decrease in tumor spheroid growth at 1000 nM with media replenishment twice per week along with 3 to 4-day interval compound relative to control.
Assay [5] in a line: Growth inhibition of human LNCaP/AR cells assessed as decrease in tumor spheroid growth at 1000 nM with media replenishment twice per week along with 3 to 4-day interval compound in presence of Compound A relative to control.
A short description of assay [6]: Growth inhibition of human LNCaP/AR cells assessed as decrease in tumor spheroid growth at 1000 nM with media replenishment twice per week along with 3 to 4-day interval compound in presence of palbociclib relative to control.
Assay [7] is described as follows: Growth inhibition of human LNCaP/AR cells assessed as decrease in tumor spheroid growth at 300 nM with media replenishment twice per week along with 3 to 4-day interval compound relative to control.
The nature of assay [8]: Growth inhibition of human LNCaP/AR cells assessed as decrease in tumor spheroid growth at 300 nM with media replenishment twice per week along with 3 to 4-day interval compound in presence of enzalutamide relative to control.

As to `CC(=O)c1c(C)c2cnc(Nc3ccc(N4CCNCC4)cn3)nc2n(C2CCCC2)c1=O` [PALBOCICLIB], the inhibition of growth at 0.03 µM turned out to be 47% in assay [1] and 5% in assay [3]. For the same compound, the inhibition of growth at 0.1 µM in assay [2] is 24%.
Consider `CNC(=O)c1ccc(N2C(=S)N(c3ccc(C#N)c(C(F)(F)F)c3)C(=O)C2(C)C)cc1F` [ENZALUTAMIDE], for which the inhibition of growth at 1 µM was 46% in assay [4], 70% in assay [5] and 47% in assay [6].
For the compound `CC(C)n1c(C(C)(C)O)nc2c(F)cc(-c3nc(N[C@@H]4CCOC[C@H]4O)ncc3Cl)cc21` [ATIRMOCICLIB], in assay [4], the inhibition of growth at 1 µM was 53%. Moreover, the inhibition of growth at 0.3 µM in assay [7] stood at 38%; in assay [8], 70%. In addition, the inhibition of growth at 0.1 µM in assay [2] amounted to 27%.
